{"source": "patent US20070196514A1", "about": "“Prostate cancer treatment with glycogen synthase kinase-3beta inhibitors” (priority 2006, published 2007)", "type_in_all_cases": "cell-based, human", "key": {"PC-3 cells": {"tested_on": "PC-3 cells", "test": "trypan blue viable cell counting", "method": "(§1) For cell counting assay, cells were seeded at the density of 5×10^4 cells in 12-well plates in duplicates and allowed for attachment overnight. Cells were harvested daily for three days and the number of viable cells was counted using a hemocytometer after staining in trypan blue solution (Liao 2003).\n(§2) First, the effect of LiCl on cell growth was investigated. AR-positive, androgen-dependent LNCaP cells or AR-null PC-3 cells were seeded in a 12-well plate overnight and then treated with or without LiCl in different doses."}, "LNCaP cells [1]": {"tested_on": "LNCaP cells", "test": "trypan blue viable cell counting", "method": "as §1, §2"}, "LNCaP cells [2]": {"tested_on": "LNCaP cells", "test": "Western blot of cell cycle-related proteins", "method": "Western blot was carried out as described previously (Liao 2004, Liao 2003, and Liao 2005). Briefly, cells were pellets and lysed in radio-immunoprecipitation assay (“RIPA”) buffer containing protease inhibitors (Half™ Protease Inhibitor Cocktail Kit, PIERCE, Rockford, Ill.). Proteins were separated on SDS-PAGE gels and transferred to Immuno-Blot™ PVDF membrane (BIO-RAD, Hercules, Calif.). Membranes were blocked in a tris-buffered solution plus Tween 20 (“TBST”) solution with 5% nonfat dry milk and incubated with primary antibodies overnight at 4° C. Immunoreactive signals were detected by horseradish peroxidase-conjugated secondary antibodies (Santa Cruz Biotech., Santa Cruz, Calif.) followed by SuperSingnal® WestFeml® Maximum Sensitivity Substrate (PIERCE).\nTo verify those alterations at a protein level, two series experiments were conducted using Western blot technique. The first involved a time-course experiment. After serum starvation, LNCaP cells were left untreated or treated as before with LiCl for up to 24 hours. Cells were harvested at 18-24 hours.\nNext, a dose-response experiment was performed. Following serum starvation for 24 hours, LNCaP cells were treated with BIO at different doses for another 24 hours. Control cells received the vehicle as treatment."}, "LNCaP cells [3]": {"tested_on": "LNCaP cells", "test": "MTT cell growth assay", "settings": "equimolecular concentrations of LiCl, NaCl, KCl, three days", "method": "For MTT-based cell growth assays, cells seeded in 96-well plates were serum-starved for 48 hours, and were then treated with vehicle or different reagents for different time periods as indicated in the figures. MTT assay were carried out using a pre-assembled kit (Sigma) according to the manufacturer's manual.\nTo rule out the eventual intervention of the chloride anion and the osmotic disturbance, the effect of LiCl was compared with sodium chloride (“NaCl”) and potassium chloride (“KCl”) at equimolecular concentrations in both LNCaP and PC-3 cell lines. In addition, the androgen-insensitive C4-2 cell line was included. To easily handle the experiments while multiple comparisons were taken in place, a MTT assay was used to assess cell growth.\nLastly, two GSK-3β-specific small chemical inhibitors, SB216763 and BIO, were used to verify that LiCl-induced suppression of cell growth is due to GSK-3β inhibition. LNCaP cells were seeded as above and then treated with increasing doses of the inhibitors in a full culture medium. Cell growth was assessed three days later by MTT assay."}, "HEK293 cells": {"tested_on": "HEK293 cells", "test": "Affymetrix cDNA microarray for LiCl-induced changes", "settings": "LiCl treatment, data not shown", "method": "Androgen-insensitive C4-2 cells and HEK293 cells were used for cDNA-based microarray analysis. After serum starvation for 24 hours, cells were left untreated or treated with LiCl (10 mM) in serum free media for 30 minutes whereas the control cells received PBS in the same media. Then 10% FBS was brought back to both control and LiCl pre-treated cells and incubated for another 6 hours. At the end of treatment, total cellular RNAs were extracted using Trizol-based protocol as described (Liao 2005).\nGenechip® arrays (Affymetrix Inc, Santa Clara, Calif.) used herein contain almost 45,000 probe sets representing more than 39,000 transcripts derived from approximately 33,000 well substantial human genes. The in vitro-transcription labeling is conducted using the EnzoBio array high yield RNA transcript labeling kit (Affymetrix). Ten micrograms of total RNAs were used for the first strand cDNA synthesis using the SuperscriptChoice system (Invitrogen).\nGenechips were hybridized for 16 hours at 45° C. and 60 rpm in Genechip hybridization oven Model 640. After washing the Genechip, the signal intensity was detected using the Agilent Gene Array scanner.\nThe most dramatic changes were down-regulation of cdc6, cdc25C, cyclins A and E, as well as up-regulation of CDK inhibitor p21^CIP1. […]"}, "[4]": {"settings": "LiCl at a dose of less than 3 mM, up to three days"}}, "data": [{"smiles": "[Cl-].[Li+]", "note": "[LiCl, Lithium chloride]", "values": [{"measurement": "inhibition of cell growth (viable cell count)", "setting": "PC-3 cells; LiCl 10 mM", "value": "significantly inhibited"}, {"measurement": "mean doubling-time", "setting": "PC-3 cells; LiCl 10 mM (no treatment 21.5 hours)", "value": 30.2, "unit": "h"}, {"measurement": "inhibition of cell growth (viable cell count)", "setting": "PC-3 cells; [4]", "value": "no obvious inhibition"}, {"measurement": "inhibition of cell growth (viable cell count)", "setting": "LNCaP cells [1]; LiCl 10 mM", "value": "significantly inhibited"}, {"measurement": "mean doubling-time", "setting": "LNCaP cells [1]; LiCl 10 mM (no treatment 23.7 hours)", "value": 33.3, "unit": "h"}, {"measurement": "inhibition of cell growth (viable cell count)", "setting": "LNCaP cells [1]; [4]", "value": "no obvious inhibition"}, {"measurement": "protein levels of cyclin B, PCNA, pRb, cdc2, cdc42 and GSK-3β (Western blot)", "setting": "LNCaP cells [2]; LiCl time-course", "value": "no significant change"}, {"measurement": "serum-induced increase of cyclins A and E, cdc6 and cdc25C protein (Western blot)", "setting": "LNCaP cells [2]; LiCl time-course up to 24 hours", "value": "dramatically suppressed"}, {"measurement": "protein levels of cyclin D1 (Western blot)", "setting": "LNCaP cells [2]; LiCl time-course, vs control", "value": "slightly higher"}, {"measurement": "p21CIP1 protein expression (Western blot)", "setting": "LNCaP cells [2]; LiCl time-course, vs untreated control", "value": "increased significantly"}, {"measurement": "cell growth inhibition (MTT)", "setting": "LNCaP cells [3]", "value": "dramatic inhibition"}, {"measurement": "alterations of cell cycle genes (microarray)", "setting": "HEK293 cells", "value": "not observed"}]}]}
